Test results reported in ChEMBL document CHEMBL5143535, “Novel O-acylated (E)-3-aryl-6,7-dihydrobenzisoxazol-4(5H)-one oximes targeting HSP90-HER2 axis in breast cancer cells” (Bioorg Med Chem, 2022).
Active and inactive are the calls of the source. The calls are words filed in the database; no cut-off is given here.

What was measured:
HCC1954 [1] = assay: Antiproliferative activity against human HCC1954 cells measured after 72 hrs by MTT assay; type: functional, cell-based; settings: HCC1954, 72 h
MDA-MB-231 = assay: Antiproliferative activity against human MDA-MB-231 cells measured after 72 hrs by MTT assay; type: functional, cell-based; settings: MDA-MB-231, 72 h
MCF7 = assay: Antiproliferative activity against human MCF7 cells measured after 72 hrs by MTT assay; type: functional, cell-based; settings: MCF7, 72 h
HCC1954 [2] = assay: Antiproliferative activity against human HCC1954 cells measured after 72 hrs by SRB assay; type: functional, cell-based; settings: HCC1954, 72 h
[3] = target: T1, Heat shock protein HSP90 (Homo sapiens) (UniProt P07900+P08238); assay: Inhibition of HSP90 in human HCC1954 cells assessed as reduction in AKT phosphorylation at 10 to 20 uM measured after 72 hrs by Western blot analysis; type: cell-based; settings: dose 10-20 µM
[4] = target: T1, Heat shock protein HSP90 (Homo sapiens); assay: Inhibition of HSP90 in human HCC1954 cells assessed as down regulation of HER2 expression at 10 to 20 uM measured after 72 hrs by Western blot analysis; type: cell-based; settings: dose 10-20 µM
[5] = target: T1, Heat shock protein HSP90 (Homo sapiens); assay: Inhibition of HSP90 in human HCC1954 cells assessed as down regulation of AKT expression at 10 to 20 uM measured after 72 hrs by Western blot analysis; type: cell-based; settings: dose 10-20 µM
[6] = Effect on HSP70 expression in human HCC1954 cells at 10 to 20 uM measured after 72 hrs by Western blot analysis; type: toxicity, cell-based; settings: hcc1954, 72 h, dose 10-20 µM
HCC1954 [7] = assay: Induction of apoptosis in human HCC1954 cells assessed as reduction in NF-kappaB expression at 10 to 20 uM measured after 72 hrs by Western blot analysis; type: functional, cell-based; settings: dose 10-20 µM
HCC1954 [8] = assay: Cell cycle arrest in human HCC1954 cells assessed as cell accumulation at sub-G1 phase at 20 uM measured after 48 hrs by propidium iodide staining based flow cytometry relative to control; type: functional
HCC1954 [9] = assay: Induction of apoptosis in human HCC1954 cells assessed as increase in cleaved PARP expression at 10 to 20 uM measured after 72 hrs by Western blot analysis; type: functional, cell-based; settings: dose 10-20 µM
HCC1954 [10] = assay: Cell cycle arrest in human HCC1954 cells assessed as increase in cell accumulation at sub-G1 phase measured after 48 hrs by propidium iodide staining based flow cytometry; type: functional; settings: dose 10-20 µM, DDE = dose-dependent effect
HCC1954 [11] = assay: Induction of apoptosis in human HCC1954 cells assessed as increase in cleaved caspase-9 expression at 10 to 20 uM measured after 72 hrs by Western blot analysis; type: functional, cell-based; settings: dose 10-20 µM
[12] = target: T1, Heat shock protein HSP90 (Homo sapiens); assay: Inhibition of HSP90 in human HCC1954 cells assessed as down regulation of ERK1/2 expression at 10 to 20 uM measured after 72 hrs by Western blot analysis; type: cell-based; settings: dose 10-20 µM
[13] = Cytotoxicity against human MCF-10A cells measured after 72 hrs by MTT assay; type: toxicity, cell-based
HCC1954 [14] = assay: Cell cycle arrest in human HCC1954 cells assessed as decrease in cell accumulation at G1 phase at 10 to 20 uM measured after 48 hrs by propidium iodide staining based flow cytometry; type: functional; settings: dose 10-20 µM
[15] = target: T1, Heat shock protein HSP90 (Homo sapiens); assay: Inhibition of HSP90 in human HCC1954 cells assessed as down regulation of EGFR expression at 10 to 20 uM measured after 72 hrs by Western blot analysis; type: cell-based; settings: dose 10-20 µM

In the case of `Nc1cccc(C(=O)Nc2cccc(C(=O)O/N=C3\CCCc4noc(-c5ccc(F)cc5)c43)c2)c1`, the IC50 (HCC1954 [1]) is reported as > 25 µM, the IC50 (MDA-MB-231) is reported as > 25 µM and the IC50 (MCF7) is reported as > 25 µM.

In the case of `O=C(Nc1cccc(C(=O)O/N=C2\CCCc3onc(-c4cccc(F)c4)c32)c1)c1cccc(F)c1`, the IC50 (HCC1954 [1]) is reported as > 25 µM, the IC50 (MDA-MB-231) is reported as 8.7 µM and the IC50 (MCF7) is reported as 4.7 µM.

In the case of `CC(C)(C)OC(=O)Nc1cccc(C(=O)Nc2cccc(C(=O)O/N=C3\CCCc4onc(-c5ccc(F)cc5)c43)c2)c1`, the IC50 (HCC1954 [1]) is reported as > 25 µM, the IC50 (MDA-MB-231) is reported as > 25 µM and the IC50 (MCF7) is reported as > 25 µM.

For `CC1(C)C/C(=N\OC(=O)c2cccc(NC(=O)c3cccc(F)c3)c2)c2c(-c3cccc(F)c3)noc2C1`, the IC50 (HCC1954 [1]) was > 25 µM, the IC50 (MDA-MB-231) was > 25 µM and the IC50 (MCF7) was 25 µM.

For `O=C(Nc1ccccc1C(=O)O/N=C1\CCCc2noc(-c3ccc(F)cc3)c21)c1ccccc1F`, the IC50 (HCC1954 [1]) was > 25 µM, the IC50 (MDA-MB-231) was > 25 µM and the IC50 (MCF7) was > 25 µM.

For `Nc1cccc(C(=O)Nc2cccc(C(=O)O/N=C3\CCCc4onc(-c5ccc(F)cc5)c43)c2)c1`, the IC50 (HCC1954 [1]) was > 25 µM, the IC50 (MDA-MB-231) was > 25 µM and the IC50 (MCF7) was > 25 µM.

In the case of `COc1ccc(-c2onc3c2/C(=N/OC(=O)c2cccc(NC(=O)c4cccc(F)c4)c2)CC(C)(C)C3)cc1OC`, the IC50 (HCC1954 [1]) is reported as > 25 µM, the IC50 (MDA-MB-231) is reported as > 25 µM and the IC50 (MCF7) is reported as > 25 µM.

With `O=C(Nc1cccc(C(=O)O/N=C2\CCCc3noc(-c4ccc(F)cc4)c32)c1)c1cccc(F)c1` the IC50 (HCC1954 [1]) was > 25 µM, the IC50 (MDA-MB-231) was > 25 µM and the IC50 (MCF7) was > 25 µM.

With `O=C(O)c1cccc(NC(=O)c2cccc(F)c2)c1` the IC50 (HCC1954 [1]) was > 25 µM, the IC50 (MDA-MB-231) was > 25 µM and the IC50 (MCF7) was > 25 µM.

In the case of `COc1cccc(C(=O)Nc2cccc(C(=O)O/N=C3\CCCc4onc(-c5ccc(OC)c(OC)c5)c43)c2)c1`, the IC50 (HCC1954 [1]) is reported as > 25 µM, the IC50 (MDA-MB-231) is reported as > 25 µM and the IC50 (MCF7) is reported as > 25 µM.

For `CC1(C)C/C(=N\OC(=O)c2cccc(NC(=O)c3cccc(F)c3)c2)c2c(noc2-c2cccc(F)c2)C1`, the IC50 (HCC1954 [1]) was > 25 µM, the IC50 (MDA-MB-231) was > 25 µM and the IC50 (MCF7) was > 25 µM.

For `O/N=C1\CCCc2onc(-c3cccc(F)c3)c21`, the IC50 (HCC1954 [1]) was > 25 µM, the IC50 (MDA-MB-231) was > 25 µM and the IC50 (MCF7) was > 25 µM.

In the case of `COc1cc(/C=C(\C#N)C(N)=O)cc(CSc2nc3ccccc3s2)c1O`, the IC50 (HCC1954 [2]) is reported as 30 µM.

With `CC1(C)C/C(=N\OC(=O)c2cccc(NC(=O)c3cccc(F)c3)c2)c2c(-c3ccc(F)cc3)noc2C1` the IC50 (HCC1954 [1]) was > 25 µM, the IC50 (MDA-MB-231) was > 25 µM and the IC50 (MCF7) was 5.2 µM.

For `COc1ccc(-c2noc3c2/C(=N/OC(=O)c2cccc(NC(=O)c4cccc(F)c4)c2)CC(C)(C)C3)cc1OC`, the IC50 (HCC1954 [1]) was > 25 µM, the IC50 (MDA-MB-231) was > 25 µM and the IC50 (MCF7) was > 25 µM.

With `COc1ccc(-c2noc3c2/C(=N/OC(=O)c2cccc(NC(=O)c4cccc(N)c4)c2)CCC3)cc1OC` the IC50 (HCC1954 [1]) was > 25 µM, the IC50 (MDA-MB-231) was > 25 µM and the IC50 (MCF7) was 25 µM.

For `CC(=O)Nc1ccccc1C(=O)O/N=C1\CCCc2noc(-c3ccc(F)cc3)c21`, the IC50 (HCC1954 [1]) was > 25 µM, the IC50 (MDA-MB-231) was > 25 µM and the IC50 (MCF7) was > 25 µM.

In the case of `O=C(Nc1cccc(C(=O)O/N=C2\CCCc3noc(-c4cccc(F)c4)c32)c1)c1cccc(F)c1`, the IC50 (HCC1954 [1]) is reported as > 25 µM, the IC50 (MDA-MB-231) is reported as 9.3 µM and the IC50 (MCF7) is reported as > 25 µM.

In the case of `COc1ccc(-c2noc3c2/C(=N/OC(=O)c2cccc(NC(=O)c4cccc(F)c4)c2)CCC3)cc1OC`, the IC50 (HCC1954 [1]) is reported as > 25 µM, the IC50 (MDA-MB-231) is reported as > 25 µM and the IC50 (MCF7) is reported as > 25 µM.

In the case of `COc1cc(-c2onc3c2/C(=N/OC(=O)c2cccc(NC(=O)c4cccc(F)c4)c2)CC(C)(C)C3)ccc1O`, the inhibition [3] is reported as “Active”, the inhibition [4] is reported as “Active” and the inhibition [5] is reported as “Active”. For the same compound, the Activity [6] was “Non-Toxic”, the Activity (HCC1954 [7]) was “Active” and the IC50 (HCC1954 [1]) was 6 µM. The Activity (HCC1954 [8]) was 50%, the Activity (HCC1954 [9]) was “Active” and the Activity (HCC1954 [10]) was “Dde”. The Activity (HCC1954 [11]) was “Active”, the inhibition [12] was “Active” and the IC50 at 72 h [13] was > 30 µM. The IC50 (HCC1954 [2]) was 6 µM, the IC50 (MDA-MB-231) was > 25 µM and the IC50 (MCF7) was 6.2 µM. For the same compound, the Activity (HCC1954 [14]) was “Active” and the inhibition [15] was “Active”.

With `CC1(C)C/C(=N\OC(=O)c2ccccc2NC(=O)c2ccccc2F)c2c(-c3ccc(F)cc3)noc2C1` the IC50 (HCC1954 [1]) was > 25 µM, the IC50 (MDA-MB-231) was > 25 µM and the IC50 (MCF7) was > 25 µM.

With `O=C(Nc1cccc(C(=O)O/N=C2\CCCc3onc(-c4ccccc4F)c32)c1)c1cccc(F)c1` the IC50 (HCC1954 [1]) was > 25 µM, the IC50 (MDA-MB-231) was 6.2 µM and the IC50 (MCF7) was > 25 µM.

With `O=C(Nc1ccccc1C(=O)O/N=C1\CCCc2onc(-c3ccc(F)cc3)c21)c1cccc(F)c1` the IC50 (HCC1954 [1]) was > 25 µM, the IC50 (MDA-MB-231) was > 25 µM and the IC50 (MCF7) was > 25 µM.
